In patent US12516356B2, “Process for the detoxification of lignocellulosic hydrolysate and its use in synthesizing xylitol” (COUNCIL OF SCIENTIFIC AND INDUSTRIAL RESEARCH, priority 2020, dated 2026):

Test system: HepG2 cell lines
Test: cytotoxicity studies on HepG2 cell lines
Format: cell-based
Conditions: xylitol crystals recovered from fermentation broth

OC[C@@H](O)[C@H](O)[C@@H](O)CO [Xylitol crystals, xylitol]
toxic effect on HepG2 cell lines (cytotoxicity studies): no toxic effect
